Test results taken from patent EP0170258A2, “11-Substituted-16-phenoxy and 16-substituted phenoxy-prostatrienoic acid derivatives” (priority 1984, dated 1986).

How the values were obtained:
[1] = system: Normal White Albino New Zealand Rabbits; assay: Reduction of intraocular pressure (IOP), pneuma-tonometer; assay type: in vivo
Procedure: Two groups of normal albino white New Zealand rabbits were used for this study. Control group: 4 animals Experimental group: 8 animals At time 0, intraocular pressure of both eyes of each animal in control and experimental groups was determined. All animals received the treatment either with saline (control group) or the tested compound (experimental group) immediately after 0 hour intraocular pressure reading. Control group received 50 µl of vehicle in both eyes . Experimental animals received 50 µl of vehicle in the left eyes and 50 µl of the test solution in the right eyes. Intraocular pressure was measured at 30 minutes, 1, 2, and 4 hours. The effects of tested drug on intraocular pressure of the rabbit was determined using a Digilab Model 30D pneuma-tonometer. Initial IOP readings were obtained in all animals after the administration of 50 ul of 0.5% Opthaine (proparacaine hydrochloride). A group of 4 rabbits served as controls and were treated with 50 µl of saline in both eyes. Eight additional rabbits received 50 ul of test drug in the right eye, and 50 µl of drug vehicle was administered in the contralateral left eye. IOP readings were made 30 minutes, 1 hours, 2 hours, and 4 hours after drug administration. […] This procedure permitted the comparison of drug treated eye with the contralateral vehicle treated eye, and also with saline treated eye. For purposes of statistical analysis comparisons were made between the drug treated IOP values and vehicle treated-contralateral eyes and also the saline treated IOP values.

[2] = system: rabbits; assay: Toxicity by topical ocular application in rabbits; assay type: in vivo; details: up to 0.2 mg/ml, 0.1 ml/eye, from 12 times in 6 hours to up to 6 times/day for a week
Procedure: Studies were conducted by topical ocular application in rabbits with concentrations up to 0.2 mg/ml of methyl 9-oxo-lla-methyl-15a-hydroxy-16-phenoxy-17,18,19,20-tetranorprosta-4,5,13(E)-trienoate. The dose volume was 0.1 ml/eye. Duration of administration varied from 12 times in 6 hours to up to 6 times/day for a week.

[3] = system: Monkeys; assay: Toxicity by topical ocular application in monkeys; assay type: in vivo; details: same concentrations and dosages, once a day for one week
Procedure: Monkeys were treated similarly with the same concentrations and dosages of methyl 9-oxo-lla- methyl-15a-hydroxy-16-phenoxy-17,18,19,20-tetranorprosta-4,5,13(E)-trienoate once a day for one week.

[4] = system: Normal White Albino New Zealand Rabbits; assay: Reduction of intraocular pressure (IOP), pneuma-tonometer; details: rabbit, in vivo

## COC(=O)CCC=C=CC[C@H]1C(=O)C[C@@H](C)[C@@H]1/C=C/[C@@H](O)COc1ccccc1 [Compound 1, methyl 9-oxo-11α-methyl-15α-hydroxy-16-phenoxy-17,18,19,20-tetranorprosta-4,5,13(E)-trienoate]
[1]; 0.01% solution, right (treated) eyes of the experimental group
  intraocular pressure (effect in words): decreased significantly
[1]; Compound 1 0.02%, 0 hr (reading before treatment)
  Intraocular pressure: 21.63 ± .71 mmHg
[1]; Compound 1 0.02%, 1/2 hr
  Intraocular pressure: 18.13 ± .44 mmHg
[1]; Compound 1 0.02%, 1 hr
  Intraocular pressure: 17.25 ± .59 mmHg
[1]; Compound 1 0.02%, 2 hr
  Intraocular pressure: 16.63 ± .78 mmHg
[1]; Compound 1 0.02%, 4 hr
  Intraocular pressure: 18.75 ± .68 mmHg
[1]; Compound 1 0.2%, 0 hr (reading before treatment)
  Intraocular pressure: 23.75 ± .53 mmHg
[1]; Compound 1 0.2%, 1/2 hr
  Intraocular pressure: 19.25 ± .49 mmHg
[1]; Compound 1 0.2%, 1 hr
  Intraocular pressure: 18.88 ± .64 mmHg
[1]; Compound 1 0.2%, 2 hr
  Intraocular pressure: 18.75 ± .45 mmHg
[1]; Compound 1 0.2%, 4 hr
  Intraocular pressure: 19.88 ± .35 mmHg
[2]
  ocular toxicity: No ocular toxicity occurred
[3]
  ocular toxicity: No ocular toxicity occurred

## CCCCC[C@H](O)/C=C/[C@H]1[C@H](O)CC(=O)[C@@H]1CCCCCCC(=O)O [PGE1]
[1]; PGE1 0.01%, 0 hr (reading before treatment)
  Intraocular pressure: 20.67 ± 1.09 mmHg
[1]; PGE1 0.01%, 1/2 hr
  Intraocular pressure: 38.17 ± 1.28 mmHg
[1]; PGE1 0.01%, 1 hr
  Intraocular pressure: 31.17 ± .91 mmHg
[1]; PGE1 0.01%, 2 hr
  Intraocular pressure: 15.33 ± .56 mmHg
[1]; PGE1 0.01%, 4 hr
  Intraocular pressure: 16.33 ± 1.17 mmHg
[1]; PGE1 0.01%, 6 hr
  Intraocular pressure: 19.00 ± 1.03 mmHg
[1]; rabbit, in vivo
  transient increase in intraocular pressure at the time of administration: transitory rise in intraocular pressure
[4]
  eye irritation: severe eye irritation

## CCCCC[C@H](O)/C=C/[C@H]1[C@H](O)CC(=O)[C@@H]1C/C=C\CCCC(=O)O [PGE2]
[1]; PGE2 0.025%, 0 hr (reading before treatment)
  Intraocular pressure: 21.00 ± .85 mmHg
[1]; PGE2 0.025%, 1/2 hr
  Intraocular pressure: 47.63 ± 1.28 mmHg
[1]; PGE2 0.025%, 2.5 hr
  Intraocular pressure: 18.38 ± .82 mmHg
[1]; PGE2 0.025%, 4 hr
  Intraocular pressure: 16.00 ± .73 mmHg
[1]; PGE2 0.025%, 5 hr
  Intraocular pressure: 16.63 ± .38 mmHg
[1]; observed on administration, for PGE1 and PGE2 even at low doses
  eye irritation: severe eye irritation
[1]; when first administered
  transient increase in intraocular pressure at the time of administration: transitory rise in intraocular pressure
